Values quoted from earlier work as cited in patent US20100172986A1, “CONTROLLED RELEASE COMPOSITION AND PREPARATION THEREOF” (LOTUS PHARMACEUTICAL CO., LTD., priority 2006, published 2010).

Conditions: in adults

CCCC(CCC)C(=O)O [valproic acid, 2-Propylpentanoic acid]
elimination half-life: six and seventeen
